This assay has as its system spike-FP12 peptide. It counts as binding, SARS-CoV-2.
For TLPFGDVEYVDLDAFL, the “% Count” value is reported as 0.29% and the “Count (read counts of phage display binding to FP)” value is 148.

In the case of SFQYADIYEQMMLTGL, the “% Count” value is listed as 0.01% and the “Count (read counts of phage display binding to FP)” value came to 5.

As for DTLLPTQQAEVLHPVV, the “% Count” value came to 2.70% and the “Count (read counts of phage display binding to FP)” value worked out at 1392.

In the case of GPDRNFRLSEHRQALA, the “% Count” value was determined as 6.59% and the “Count (read counts of phage display binding to FP)” value was 3393.

For GSSYAEMEVMKMIMTL, the “% Count” value was 0.06% and the “Count (read counts of phage display binding to FP)” value was determined as 31.

As to NFRLSEHRQALAAAKH, the “% Count” value was 0.00% and the “Count (read counts of phage display binding to FP)” value came out at 2.

For the sequence QLEHVKLFMQDLSAML, the “% Count” value is 9.07% and the “Count (read counts of phage display binding to FP)” value is given as 4673.

Regarding HPNIKRVTPQRKVFRS, the “% Count” value is reported as 0.01% and the “Count (read counts of phage display binding to FP)” value is 3.

Values taken from publication PMC12844208, “Screening for Peptides to Bind and Functionally Inhibit SARS-CoV-2 Fusion Peptide Using Mirrored Combinatorial Phage Display and Human Proteomic Phage Display” (Molecules, 2026).
